From patent publication US20040176274A1, “Analgesic methods using endothelin receptor ligands” (priority 2001, published 2004)
Where “and” joins values, the source holds several entries; their conditions need not be identical. Identical values can stand only once. Like-named read-outs stand apart in the source and are kept apart here. *1 amine or outer side, *2 acyl side, *3 side chain or, on linkers, in order; H or OH if unused. Where no end group is shown, it is not given here. Suc = O=C(CCC(=O)[*:2])[*:1]

How the values were obtained:
[1] = system: ET-1-induced pain in the rat plantar hindpaw; assay type: in vivo
Description: These examples are provided to illustrate the invention and should not be construed as limiting. ETA and ETB Receptors Mediate ET-1-induced Pain in the Rat Plantar Hindpaw An ET-1 animal model of acute pain was used to investigate the signaling pathways involved in endothelin receptor-mediated nociception. In this model system, acute pain was induced under sevoflurane anesthesia by subcutaneous ET-1 injection into the rat plantar hindpaw after 40 seconds of limb cooling. Injections were given either as a single 20 μl bolus for single compound or co-administration studies, or as two 10 μl injections separated by 1-2 minutes for pre-treatment studies, and were delivered into the mid plantar paw approximately 1 cm distal to the heel. Repetitive and spontaneous flinching of the ipsilateral hindpaw were counted in 5 minute blocks, beginning 5 minutes after ET-1 injection, for 75 minutes. […] Data was reported as the mean±s.e.m.

[2] = system: sciatic nerve C-fibers; assay: Electrophysiological recording of spike activity in nociceptive C-fibers after plantar hindpaw injection; assay type: in vivo, rat; details: ET-1 2 nmoles, IRL-1620 2 nmoles; s.c. plantar hindpaw injection
Description: FIG. 5 is a representative series of electrophysiological recordings of C-fiber activity following subcutaneous plantar hindpaw injections of (A) ET-1 alone, (B) ET-1 and IRL-1620, and (C) ET-1, IRL-1620, and naloxone. The arrow in (A) indicates the time of ET-1 injection. The first and second arrows in (B) indicate the time of IRL-1620 and IRL-1620/ET-1 injections, respectively. The first and second arrows in (C) indicate the time of IRL-1620/naloxone and ET-1/IRL-1620/naloxone injections, respectively.
In order to confirm that ETB receptor activation inhibits the ET-1-induced pain response and that the inhibition is mediated through an opioid-sensitive mechanism, the spike response of IRL-1620 alone, and in combination with naloxone, were studied in nociceptive C-fibers. Spike activity was recorded in sciatic nerve C-fibers from twelve animals following subcutaneous plantar hindpaw injections of ET-1. The mean and maximum response frequencies following injection of ET-1 alone (2 nmoles) are 0.32±0.07 imp/s and 4.17+0.17 imp/s, respectively.

[3] = system: GIRK2 knockout mice; assay: ET-1 pain behavior (biting and licking) in GIRK2 knockout mice; assay type: in vivo; details: ET-1 100 pmol s.c. mouse plantar hindpaw, 30 minutes
Experimental: (§1) The duration of biting and licking events was used as a measure of pain responsiveness following subcutaneous administration of ET-1(100 pmol) into the mouse plantar hindpaw. The duration of these events was assessed in five minute periods for 30 minutes after ET-1 injection.

[4] = system: wild-type control mice; assay: ET-1 pain behavior (biting and licking) in wild-type control mice; assay type: in vivo; details: ET-1 100 pmol s.c. mouse plantar hindpaw, 30 minutes
Experimental: as §1

[5] = system: cultured adult human primary keratinocytes; assay: β-endorphin release from cultured keratinocytes (radioimmunoassay); assay type: cell-based
Experimental: Cultured adult human primary keratinocytes, obtained during facelift procedures, were used to confirm that keratinocytes are the source of the extracellular β-endorphin that mediates ETB receptor-induced analgesia. Cultured keratinocytes were transferred to PBS and incubated in the presence of either 10 or 200 nM IRL-1620 for thirty or sixty minutes. Subsequently, the β-endorphin concentration in the PBS was measured by radioimmunoassay. In the absence of IRL-1620, the basal level of β-endorphin was 1.76±0.08 μg/ml. […] The intracellular concentration of β-endorphin in similarly treated cultured keratinocytes was 108±48 pg β-endorphin per 10^5 cells.

[6] = entire 75 minute observation period, dosages ET-1 2 nmol, BQ-788 60 nmol, IRL-1620 2 nmol, naloxone 55 nmol, tertiapin 20 pmol, mean ± s.e.m.
[7] = s.c. rat plantar hindpaw, dosages ET-1 2 nmol, BQ-788 60 nmol, IRL-1620 2 nmol, naloxone 55 nmol, tertiapin 20 pmol, mean ± s.e.m.
[8] = without ET-1, BQ-788 60 nmol bolus or 2 x 30 nmol, naloxone 55 nmol, tertiapin 20 pmol
[9] = 0.5 μg CL prior to ET-1 (2 nmol), 75 minute observation period, ET-1 line = control
[10] = 0.5 μg CL s.c. two minutes prior to ET-1 (2 nmol), ET-1 line = control
[11] = 0.5 μg CL, or equal volume of water (ET-1 + IRL-1620 line), prior to co-administration of ET-1 (2 nmol) and IRL-1620 (2 nmol)
[12] = CTOP 18.8 nmoles co-injected with ET-1 and IRL-1620
[13] = ET-1 4 nmol, s.c. rat plantar hindpaw
[14] = ET-1 6 nmol, s.c. rat plantar hindpaw
[15] = IRL-1620 4 nmol, alone or prior and co-administered with ET-1 2 nmol

## CCCC[C@@H](NC(=O)[C@@H](Cc1cn(C(=O)OC)c2ccccc12)NC(=O)[C@H](CC(C)(C)C)NC(=O)N1[C@H](C)CCC[C@@H]1C)C(=O)O (relative stereo) [BQ-788, N-cis-2,6-dimethylpiperidinocarbonyl-L-gamma-methylleucyl-D-1-methoxycarbonyltryptophanyl-D-Nle]
[1]; [6]
  Total Number of Flinches: 17.3 ± 2.3 flinches
[1]; [7]
  MFF (maximal flinch frequency): 5.8 ± 0.9 flinches per 5 minutes
  Time to MFF: 32.5 ± 10.2 min
[1]; [8]
  flinching behavior when administered alone compared to PBS control: did not result in altered flinching behaviors

## COc1ccc2c(c[n+](C)c3c4cc5c(cc4ccc23)OCO5)c1OC [CL, Chelerythrine chloride]
[1]; [9]
  Total Number of Flinches: 253±7
[1]; [10]
  MFF (maximal flinch frequency): 46±3 flinches per five minutes
[1]; [11]
  MFF (maximal flinch frequency): 39±3 flinches per five minutes
  total flinches: 207±10
[1]; 0.8 μg CL s.c. rat plantar hindpaw
  toxicity: showed signs of toxicity

## C=CCN1CC[C@]23c4c5ccc(O)c4O[C@H]2C(=O)CC[C@@]3(O)[C@H]1C5 [Naloxone, naloxone]
[1]; [6]
  Total Number of Flinches: 16.1 ± 4.1 flinches
[1]; [7]
  MFF (maximal flinch frequency): 3.3 ± 0.8 flinches per 5 minutes
  Time to MFF: 28.6 ± 5.6 min
[1]; [8]
  flinching behavior when administered alone compared to PBS control: did not induce flinching behavior that was different from PBS control

## Oc1ccc2c3c1O[C@H]1c4[nH]c5ccccc5c4C[C@@]4(O)[C@@H](C2)N(CC2CC2)CC[C@]314 [naltrindole]
[1]; naltrindole with ET-1 alone or the ET-1/IRL-1620 combination
  effect on flinching behavior: did not affect flinching behavior

## Oc1ccc2c3c1O[C@H]1c4[nH]c5c(c4C[C@@]4(O)[C@@H](C2)N(CC2CC2)CC[C@]314)C[C@@]1(O)[C@H]2Cc3ccc(O)c4c3[C@@]1(CCN2CC1CC1)[C@H]5O4 [nor-BNI]
[1]; nor-BNI 3.4 mM
  effect on flinching caused by ET-1 administration alone: partially enhanced the flinching

## Ala-Leu-Cys-Asn-Cys-Asn-Arg-Ile-Ile-Ile-Pro-His-Met-Cys-Trp-Lys-Lys-Cys-Gly-Lys-Lys (ALCNCNRIIIPHMCWKKCGKK) [Tertiapin, GIRK channel antagonist]
[1]; [6]
  Total Number of Flinches: 17 ± 6 flinches
[1]; [8]
  flinching behavior when administered alone compared to PBS control: did not induce flinching behavior that was different from naloxone or PBS control

## CTOP
[1]; [12]
  MFF (maximal flinch frequency): 31±4 flinches/5 minutes
  effect on IRL-1620 analgesia: blocked the analgesic effects of IRL-1620

## Cys-Ser-Cys-Ser-Ser-Leu-Met-Asp-Lys-Glu-Cys-Val-Tyr-Phe-Cys-His-Leu-Asp-Ile-Ile-Trp [ET-1]
[2]
  maximum response frequency of C-fiber spike activity: 4.17 ± 0.17 imp/s
  mean response frequency of C-fiber spike activity: 0.32±0.07 imp/s
[3]
  total duration of biting and licking behavior: 218 ± 18 s
[1]; [9]
  Total Number of Flinches: 153±11
[1]; [10]
  MFF (maximal flinch frequency): 27±2 flinches per five minutes
[1]; ET-1 4 nmol
  flinching behavior returning to baseline: ≤ 75 min
  start of flinching after injection: 10 to 20 min
[1]; ET-1 4 nmol, n=12
  animals with evoked ipsilateral hindpaw flinching: 100%
[1]; [13]
  MFF (maximal flinch frequency): 40.2±3.9 flinches per 5 minutes
  Time to MFF: 40.8 ± 2.8 min
[1]; ET-1 4 nmol, entire 75 minute observation period
  Total Number of Flinches: 178.5±29.1 flinches
[1]; [14]
  MFF (maximal flinch frequency): 41.9±8.7 flinches per 5 minutes
  Time to MFF: 22.5 ± 4.1 min
[1]; ET-1 6 nmol, entire 75 minute observation period
  Total Number of Flinches: 253.3 ± 66.2 flinches
[1]; [7]
  MFF (maximal flinch frequency): 23.8±1.9 flinches per 5 minutes and 24±2 flinches per 5 minutes
[4]
  total duration of biting and licking behavior: 152 ± 18 s

## Suc-Asp-Glu-Glu-Ala-Val-Tyr-Phe-Ala-His-Leu-Asp-Ile-Ile-Trp (Suc-DEEAVYFAHLDIIW) [IRL-1620, ETB receptor agonist]
[5]; 10 nM IRL-1620, 60 minute incubation
  change in extracellular β-endorphin: did not result in a significant change
[5]; 200 nM IRL-1620 in PBS, basal level 1.76±0.08 μg/ml
  extracellular β-endorphin concentration: 10.5 ± 3 µg/mL
[5]; 200 nM IRL-1620 versus basal
  increase in extracellular β-endorphin: 5 fold
[5]; similarly treated cultured keratinocytes
  intracellular concentration of β-endorphin: 108±48 pg β-endorphin per 10^5 cells
[1]; IRL-1620 4 nmol alone
  flinching behavior when administered alone compared to PBS control: small but significant increase in flinching behavior
[1]; [15]
  MFF (maximal flinch frequency): 4.7 ± 0.6 flinches per 5 minutes
  Time to MFF: 33.3 ± 6.1 min
[1]; IRL-1620 4 nmol, alone or with ET-1 2 nmol, 75 minutes
  Total Number of Flinches: 22.1 ± 3.1 flinches
